From the NIST ThermoML archive (doi:10.1021/acs.jced.7b00257)

Test: mn = molality of the nth substance listed, in mol/kg
Settings: 100 kPa, Liquid; for speed of sound: Frequency=3 MHz, Sing-around technique in a fixed-path interferometer; for mass density: Vibrating tube method

N.O=P(O)(O)O [ammonium dihydrogen phosphate] + O
Settings | mass density, 288.15 K [kg/m3] | mass density, 298.15 K [kg/m3] | mass density, 308.15 K [kg/m3] | mass density, 318.15 K [kg/m3] | speed of sound, 288.15 K [m/s] | speed of sound, 298.15 K [m/s] | speed of sound, 308.15 K [m/s] | speed of sound, 318.15 K [m/s]
m1 = 0.5 | 1029.89 | 1026.93 | 1023.68 | 1019.89 | 1507.2 | 1534.7 | 1555.7 | 1570.8
m1 = 1 | 1057.21 | 1054.11 | 1050.64 | 1046.76 | 1544.3 | 1569.5 | 1588.6 | 1602.3
m1 = 1.5 | 1082.49 | 1079.39 | 1075.63 | 1071.69 | 1579.5 | 1602.2 | 1619.5 | 1631.7
m1 = 2 | 1105.65 | 1102.5 | 1098.68 | 1094.7 | 1613.6 | 1634.1 | 1649.6 | 1660.4
